Results from article PMC6934184, “Selective DNA-PKcs inhibition extends the therapeutic index of localized radiotherapy and chemotherapy” (The Journal of Clinical Investigation, 2019).

Molecular target: T1, AMPK (A1/B1/G3) (Homo sapiens, UniProt Q13131)
T1 construct: purchased Thermo Fisher Scientific (Life Technologies) SelectScreen
Test: SelectScreen LanthaScreen
Type: binding
Conditions: read-out: % displacement
Summary of the method: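 SelectScreen broad panel; activity (Z'LYTE, Adapta) plus binding formats. ATP: Km app for CSF1R Z'LYTE; 10 for CAMK1 Adapta. Readout = % per kinase.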

T1 sequence (Q13131 whole entry): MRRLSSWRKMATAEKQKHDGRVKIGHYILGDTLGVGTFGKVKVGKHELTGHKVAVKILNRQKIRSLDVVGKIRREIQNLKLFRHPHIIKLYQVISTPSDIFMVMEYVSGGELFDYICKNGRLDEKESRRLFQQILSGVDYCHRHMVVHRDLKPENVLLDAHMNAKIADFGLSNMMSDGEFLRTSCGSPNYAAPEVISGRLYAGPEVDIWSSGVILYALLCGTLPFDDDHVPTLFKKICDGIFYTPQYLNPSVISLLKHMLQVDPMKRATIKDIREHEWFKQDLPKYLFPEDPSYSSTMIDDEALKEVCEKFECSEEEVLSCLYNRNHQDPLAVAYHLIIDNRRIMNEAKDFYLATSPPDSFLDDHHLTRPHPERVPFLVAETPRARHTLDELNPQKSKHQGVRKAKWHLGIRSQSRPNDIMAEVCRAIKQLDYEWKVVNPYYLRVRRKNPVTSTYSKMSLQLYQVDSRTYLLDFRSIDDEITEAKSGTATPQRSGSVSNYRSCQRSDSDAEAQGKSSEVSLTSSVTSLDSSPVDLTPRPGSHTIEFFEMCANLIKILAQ
T1 sequence (Q9Y478 whole entry partner): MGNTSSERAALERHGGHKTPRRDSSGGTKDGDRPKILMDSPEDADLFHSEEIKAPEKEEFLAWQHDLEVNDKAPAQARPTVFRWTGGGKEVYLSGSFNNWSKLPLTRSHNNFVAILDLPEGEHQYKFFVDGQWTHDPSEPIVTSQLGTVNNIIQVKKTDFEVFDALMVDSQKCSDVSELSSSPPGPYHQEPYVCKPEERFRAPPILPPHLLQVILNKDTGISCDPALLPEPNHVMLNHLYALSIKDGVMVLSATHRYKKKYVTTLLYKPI
T1 sequence (Q9UGI9 whole entry partner): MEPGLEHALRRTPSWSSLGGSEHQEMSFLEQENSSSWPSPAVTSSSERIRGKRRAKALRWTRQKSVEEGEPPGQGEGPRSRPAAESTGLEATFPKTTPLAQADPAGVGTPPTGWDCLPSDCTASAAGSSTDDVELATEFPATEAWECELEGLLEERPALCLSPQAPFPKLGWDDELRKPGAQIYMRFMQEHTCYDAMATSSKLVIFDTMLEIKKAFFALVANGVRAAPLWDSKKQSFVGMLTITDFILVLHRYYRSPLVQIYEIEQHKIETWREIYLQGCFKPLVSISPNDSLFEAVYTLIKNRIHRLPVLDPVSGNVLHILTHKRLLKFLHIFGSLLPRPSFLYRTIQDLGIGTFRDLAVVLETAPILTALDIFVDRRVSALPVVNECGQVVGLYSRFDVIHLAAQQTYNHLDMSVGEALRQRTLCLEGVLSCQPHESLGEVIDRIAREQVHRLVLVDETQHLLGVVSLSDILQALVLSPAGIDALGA

CN(C(=O)CN1CCOCC1)c1ccc2sc3c(-c4cccc5c(=O)cc(N6CC7CCC(C6)O7)oc45)cccc3c2c1 [NU5455]
inhibition at 1 µM: 0.2%
